Patent US7872036B2, “3-triazolylphenyl sulfide derivative and insecticide, miticide and nematicide containing it as an active ingredient” (Kumiai Chemical Industry Co., Ltd., priority 2004, dated 2011)

Tests used:
two-spotted spider mites [1] = assay: Miticidal test on two-spotted spider mites (by dipping); format: in vivo, Tetranychus urticae; parameters: scale not given here; conditions: dipping of soybean seedlings, active ingredient 500 ppm, 25° C., 13 days
Description: (§1) Wettable powders were prepared in accordance with Formulation Example 2 and diluted with water to an active ingredient concentration of 500 ppm. Soybean seedlings which had been inoculated with imago two-spotted spider mites were dipped in the resulting solutions and dried in air. The treated seedlings were placed in a thermostatic chamber at 25° C. for 13 days, and the mite survivors were counted for calculation of the miticidal value by using Equation 2. The test was carried out by one series system.

two-spotted spider mites [2] = assay: Miticidal test on two-spotted spider mites (by soil drenching); format: in vivo, Tetranychus urticae; parameters: scale not given here; conditions: active ingredient 100 ppm, 5 ml per 100 g soil, 25° C., 13 days
Description: as §1, with “100” for “500”, “100 g of the soil in cups with soybean” for “Soybean”, “drenched with 5 ml of” for “dipped in”, “solutions.” for “solutions and dried in air.”, “[…]” for “thermostatic”, “2.” for “2. The test was carried out by one series system.”

brown planthoppers = assay: Insecticidal test on brown planthoppers; format: in vivo, Nilaparvata lugens; conditions: active ingredient 500 ppm, germinating rice immersed, 4th-instar larvae, 25° C., 6 days
Description: Wettable powders were prepared in accordance with Formulation Example 2 and diluted with water to an active ingredient concentration of 500 ppm. Germinating rice was immersed in the resulting solutions and put in a plastic cup with a capacity of 60 ml. Ten 4th-instar larvae of brown planthoppers were released to the cup, and the cup was covered and placed in a thermostatic chamber at 25° C. for 6 days, and the survivors were counted for calculation of the insecticidal degree by using Equation 1. The test was carried out by one series system.

[3] = test system: southern root-knot nematodes; assay: Nemastatic test on southern root-knot nematodes; format: in vivo, Meloidogyne sp.; conditions: diluted solution 20 ppm mixed 1:1 with suspension of second stage larvae, 25° C., 5 days
Description: Compounds of the present invention (5 parts) and Tween 20 (tradename for polyoxyethylene sorbitan monolaurate) (1 part) as a spreader were dissolved n N,N-dimethylformamide (94 parts) to prepare 5% emulsifiable concentrates of the compounds of the present invention. Distilled water was added to the emulsifiable concentrates to prepare diluted solutions having a concentration of the compounds of the present invention of 20 ppm. 0.5 ml of the diluted solutions and 0.5 ml of water suspensions containing 100 second stage larvae of southern root-knot nematodes were mixed, and the mixture were placed in a thermostatic chamber at 25° C. for 5 days, and the survivors were counted for calculation of the nemastatic degree by using Equation 3. The test was carried out by two series system.

Row | SMILES | Miticidal value (two-spotted spider mites [1]) | Miticidal value (two-spotted spider mites [2]) | Insecticidal degree (%) (brown planthoppers) | Nemastatic degree (%) [3]
1 | Cc1cc(F)c(-n2nc(C(F)(F)F)nc2N(C)N)cc1[S+]([O-])CC(F)(F)F (stereo not shown) [Compound 171] | 100 | 100 | 100% | 100%
2 | Cc1cc(F)c(-n2nc(C(C)(C)C)nc2N)cc1SCC(F)(F)F [Compound 144] | 100 | 100 | 90% | 97%
3 | Cc1cc(F)c(-n2nc(C(F)(F)F)nc2N(C)C(=O)C(F)(F)F)cc1[S+]([O-])CC(F)(F)F (racemic) [Compound 212] | 100 | 100 | 100% | 100%
4 | C#CCNc1nc(C(F)(F)F)nn1-c1cc([S+]([O-])CC(F)(F)F)c(C)cc1F (stereo not shown) [Compound 66] | 100 | 100 | 100% | 94%
5 | CNc1nc(SC(F)(F)C(F)(F)F)nn1-c1cc([S+]([O-])CC(F)(F)F)c(C)cc1F (stereo not shown) [Compound 102] | 100 | 100 | 100% | 98%
6 | CNc1nc(C(C)(C)C)nn1-c1cc([S+]([O-])CC(F)(F)F)c(C)cc1F (stereo not shown) [Compound 115] | 100 | 100 | 100% | 92%
7 | CNc1nc(C(C)(C)C)nn1-c1cc(SCC(F)(F)F)c(C)cc1F [Compound 114] | 100 | 100 | 100% | 100%
8 | CNc1nc(C(F)(F)F)nn1-c1ccc(C)c([S+]([O-])CC(F)(F)F)c1 (stereo not shown) [Compound 38] | 100 | 100 | 100% | 100%
9 | Cc1cc(F)c(-n2nc(SCC(F)(F)F)nc2N)cc1[S+]([O-])CC(F)(F)F (stereo not shown) [Compound 131] | 100 | 100 | 90% | 93%
10 | CNc1nc(SCC(F)(F)F)nn1-c1cc([S+]([O-])CC(F)(F)F)c(C)cc1F (stereo not shown) [Compound 161] | 100 | 100 | 100% | 98%
11 | Nc1nc(C(F)(F)F)nn1-c1ccc(Cl)c([S+]([O-])CC(F)(F)F)c1 (stereo not shown) [Compound 127] | 100 | 100 | 100% | 94%
12 | Nc1nc(C(F)(F)F)nn1-c1ccc(C(F)F)c([S+]([O-])CC(F)(F)F)c1 (stereo not shown) [Compound 123] | 100 | 100 |  | 98%
13 | Cc1cc(F)c(-n2nc(C(F)(F)F)nc2N)cc1[S+]([O-])CC(F)(F)F (stereo not shown) [Compound 2, [5-(5-amino-3-trifluoromethyl-1,2,4-triazolyl)-4-fluoro-2-methylphenyl]2,2,2-trifluoroethyl sulfoxide] | 100 | 100 | 100% | 100%
14 | Cc1cc(F)c(-n2nc([S+]([O-])C(F)F)nc2N)cc1[S+]([O-])CC(F)(F)F (stereo not shown) [Compound 30] | 100 | 100 |  | 95%
15 | Cc1cc(F)c(-n2nc(C(F)(F)F)nc2NC(=O)C(F)(F)F)cc1[S+]([O-])CC(F)(F)F (stereo not shown) [Compound 6, [5-(5-trifluoroacetylamino-3-trifluoromethyl-1,2,4-triazolyl)-4-fluoro-2-methylphenyl]2,2,2-trifluoroethyl sulfoxide] | 100 | 100 | 100% | 100%
16 | Cc1cc(F)c(-n2nc([S+]([O-])CC(F)(F)F)nc2N)cc1[S+]([O-])CC(F)(F)F (stereo not shown) [Compound 133] | 100 | 100 | 100% | 98%
17 | Cc1cc(F)c(-n2nc(C(F)(F)F)nc2N)cc1SCC(F)(F)F [Compound 1, [5-(5-amino-3-trifluoromethyl-1,2,4-triazolyl)-4-fluoro-2-methylphenyl]2,2,2-trifluoroethyl sulfide] | 100 | 99 | 90% | 100%
18 | Cc1cc(F)c(-n2nc(C#N)nc2N)cc1SCC(F)(F)F [Compound 35] | 100 | 93 |  | 100%
19 | Cc1ccc(-n2nc(C(F)(F)F)nc2N)cc1[S+]([O-])CC(F)(F)F (stereo not shown) [Compound 125] | 100 | 99 | 100% | 91%
20 | Cc1cc(F)c(-n2nc(C(F)(F)F)nc2N(C)C)cc1SCC(F)(F)F [Compound 43] | 100 | 100 | 100% | 93%
21 | Cc1cc(F)c(-n2nc(C(F)(F)F)nc2NN)cc1SCC(F)(F)F [Compound 162] | 100 | 95 | 100% | 100%
22 | CCc1nc(N)n(-c2cc([S+]([O-])CC(F)(F)F)c(C)cc2F)n1 (stereo not shown) [Compound 50] | 100 | 100 | 99% | 98%
